{"source": "patent US12193442B2", "about": "“Modulation of plant biology” (FBSCIENCES HOLDINGS, INC., priority 2012, dated 2025)", "assay_type_in_all_cases": "in vivo", "key": {"[1]": {"tested_on": "tomato plants (Lycopersicon es.)", "test": "Experiment Salt-1: CPPA/NaCl composition, foliar application", "procedure": "Experiment Salt-1: […] There were a total of 5 treatments plus an untreated check, each with 10 replicates per treatment arranged in a randomized block design. […] Each treatment comprised samples treated with CPPA alone, salt alone, or CPPA plus salt. Two rates of CPPA were used; the first was equivalent to 520 mg of TOC per hectare and a second equivalent to 1040 mg of TOC per hectare. Salt was applied at a rate equivalent to 2.6 g of salt per hectare. All treatments were diluted with water to provide a final spray volume equivalent to 208 lit per hectare, made with a spray bottle, with just enough spray solution to wet the leaf surface of each plant. Ten days after treatment the plants were assessed for vigor, leaf number, plant height, plant weight, root weight, shoot weight, and leaf conductance using a SPAD meter and are summarized in Table 8 and depicted in FIGS. 10-16."}, "[2]": {"tested_on": "wheat seeds (Triticum aestivum)", "test": "Experiment Salt-3: soil treatments of CPPA/salt formulations", "details": "soil drench, 28 days after treatment", "procedure": "For this experiment, wheat seeds (Triticum aestivum) were planted in small pots, approximately 1 inch in diameter and an inch in depth. There were a total of 8 treatments plus an untreated check, with 20 replicates per treatment arranged in a randomized block design. […] Treatments contained CPPA alone, salt alone, or CPPA plus salt. Two rates of CPPA were used; the first was equivalent to 520 mg of TOC per hectare and a second equivalent to 1040 mg of TOC per hectare. […] Twenty eight days after treatment the plants were assessed for plant weight, root weight, and shoot weight. FIG. 19 depicts plant weight, root weight, and shoot weight results for treatments with 520 mg CPPA/ha in combination with varying salt rates, which are summarized in Table 12."}, "[3]": {"tested_on": "tomato plants (Lycopersicon es.)", "test": "Experiment Salt-2: foliar treatment of CPPA/salt formulations", "details": "ten and twenty day assessments averaged", "procedure": "There were a total of 8 treatments plus an untreated check, with 20 replicates per treatment arranged in a randomized block design. Aqueous solutions of CPPA (1000 mg TOC/L) and salt (5000 mg/L) were used for this experiment and all plants were treated with a foliar application at the time they were transplanted into the pots. Each treatment contained CPPA alone, salt alone, or CPPA plus salt. Two rates of CPPA were used; the first was equivalent to 260 mg of TOC per hectare and a second equivalent to 1040 mg of TOC per hectare. […] All treatments were diluted with water to provide a final spray volume equivalent to 208 lit per hectare, applied with a spray bottle, with just enough spray solution to wet the leaf surface of each plant. Ten days after applications, ten each of the plant samples in each treatment were assessed for vigor, leaf number, plant height, plant weight, root weight, and shoot weight. Assessments were repeated at twenty days with the remaining ten plants of each treatment and the results were averaged. FIG. 17 depicts observed vigor, leaf number, plant height, plant weight, root weight, and shoot weight results for treatments to the tomato plants with 0 mg and 260 mg CPPA/ha application rate with variable salt application rates, which are also summarized in Table 4."}, "[4]": {"tested_on": "tomato plants (Lycopersicon es.)", "test": "Experiment Fe-4: addition of low levels of iron to CPPA, foliar application", "details": "for Leaf # / Plt. Ht. / Plt. Wt. / Root Wt. / Shoot Wt. / Vigor: foliar", "excerpt": "Experiment Fe-4: The purpose of this experiment was to determine if the addition of low levels of iron to a CPPA sample containing lower than typical amounts of iron (e.g., Fe/TOC=0.135) would increase the biological response of plants. Nominal Fe/TOC ratios for CPPA range from 0.10 to 0.28 but the optimum ratio for “as-is” samples of CPPA, as determined in the previous experiments, is between 0.2 and 0.25. Thus, for this experiment, non-agrochemically effective amounts of iron were combined with CPPA samples. Tomato plants (Lycopersicon es.) were produced from seed and transplanted into 3 inch by 3 inch pots. There were 16 treatments plus an untreated check with 20 replicates per treatment arranged in a Randomized Complete Block design. Pots were treated with water (UTC), or CPPA only (3 different rates), Fe only (3 different rates), or CPPA and Fe at each of the rates. The CPPA rates corresponded to 260, 520, and 1040 mg organic carbon (TOC) per hectare and the Fe rates corresponded to 130, 260, and 520 mg Fe per hectare. All pots were treated by foliar application immediately after transplanting. Ten days after the application, ten of the plants were harvested and assessed for vigor, leaf number, plant height, plant weight, root weight, and shoot weight. […] Additional application rates of CPPA and Fe were evaluated with similar synergistic results observed for the combination of CPPA with amounts of iron. Twenty days after transplanting, the remaining ten plants in each treatment were assessed."}, "seeds": {"tested_on": "seeds", "test": "Seed treatment observations with CPPA, iron-removed CPPA and Fe", "details": "treating seeds with Fe alone", "excerpt": "These observations support the premise that the combination of CPPA and Fe are synergistic in their interaction and biological effect on plants and/or seeds."}, "[5]": {"details": "CPPA 520 mg TOC/ha and/or NaCl 2600 mg/ha, ten days after treatment"}, "[6]": {"details": "CP 520 mg/ha and/or NaCl 1300 mg/ha"}, "[7]": {"details": "CP 1040 mg TOC/ha and/or NaCl 1300 mg/ha"}, "[8]": {"details": "NaCl 2600 mg/ha alone or with CP 520 mg/ha"}, "[9]": {"details": "NaCl 2600 mg/ha alone or with CP 1040 mg TOC/ha"}, "[10]": {"details": "CP 1040 mg/ha and/or NaCl 1300 mg/ha"}, "[11]": {"details": "NaCl 2600 mg/ha alone or with CP 1040 mg/ha"}, "[12]": {"details": "CPPA 260 mg TOC/ha and/or Fe 130 mg Fe/ha (FeSO4), second assessment, 20 days after application"}, "[13]": {"details": "CPPA 520 mg TOC/ha and/or Fe 130 mg Fe/ha (FeSO4), 20 days after application"}, "[14]": {"details": "CPPA 1040 mg TOC/ha and/or Fe 520 mg Fe/ha (FeSO4), first assessment, 10 days after application"}, "[15]": {"details": "CPPA 1040 mg TOC/ha and/or Fe 520 mg Fe/ha (FeSO4), second assessment, 20 days after application"}}}
{"compound": "[Cl-].[Na+]", "note": "[NaCl]", "values": [{"measurement": "Leaf #", "setting": "[1]; [5]", "value": 5.3, "unit": "e"}, {"measurement": "Plt. Ht.", "setting": "[1]; [5]", "value": 3.5, "unit": "b"}, {"measurement": "Plt. Wt.", "setting": "[1]; [5]", "value": 2.7, "unit": "c"}, {"measurement": "Root Wt.", "setting": "[1]; [5]", "value": 0.8, "unit": "jc"}, {"measurement": "SPAD (leaf conductance using a SPAD meter)", "setting": "[1]; [5]", "value": 24.2, "unit": "b"}, {"measurement": "Shoot Wt.", "setting": "[1]; [5]", "value": 2.0, "unit": "c"}, {"measurement": "Vigor", "setting": "[1]; [5]", "value": 2.4, "unit": "b"}, {"measurement": "phytotoxicity of salt and its mitigation", "setting": "[1]; Table 8, ten days", "value": "expected poorest results, indicating a significant amount of phytotoxicity"}, {"measurement": "Plt. Wt.", "setting": "[2]; [6]", "value": 2.1, "unit": "cd"}, {"measurement": "Root Wt.", "setting": "[2]; [6]", "value": 0.4, "unit": "bc"}, {"measurement": "Shoot Wt.", "setting": "[2]; [6]", "value": 1.8, "unit": "c"}, {"measurement": "Plt. Wt.", "setting": "[2]; [7]", "value": 2.1, "unit": "de"}, {"measurement": "Root Wt.", "setting": "[2]; [7]", "value": 0.4, "unit": "cd"}, {"measurement": "Shoot Wt.", "setting": "[2]; [7]", "value": 1.8, "unit": "days"}, {"measurement": "Plt. Wt.", "setting": "[2]; [8]", "value": 2, "unit": "days"}, {"measurement": "Root Wt.", "setting": "[2]; [8]", "value": 0.3, "unit": "cd"}, {"measurement": "Shoot Wt.", "setting": "[2]; [8]", "value": 1.7, "unit": "c"}, {"measurement": "Plt. Wt.", "setting": "[2]; [9]", "value": 2, "unit": "e"}, {"measurement": "Root Wt.", "setting": "[2]; [9]", "value": 0.3, "unit": "de"}, {"measurement": "Shoot Wt.", "setting": "[2]; [9]", "value": 1.7, "unit": "days"}, {"measurement": "Leaf #", "setting": "[3]; [10]", "value": 4.7, "unit": "de"}, {"measurement": "Plt. Ht.", "setting": "[3]; [10]", "value": 4.7, "unit": "cd inches"}, {"measurement": "Plt. Wt.", "setting": "[3]; [10]", "value": 3.7, "unit": "d grams"}, {"measurement": "Root Wt.", "setting": "[3]; [10]", "value": 1.4, "unit": "cd grams"}, {"measurement": "Shoot Wt.", "setting": "[3]; [10]", "value": 2.3, "unit": "e grams"}, {"measurement": "Vigor (1-5)", "setting": "[3]; [10]", "value": 2.9, "unit": "de"}, {"measurement": "Leaf #", "setting": "[3]; [11]", "value": 4.1, "unit": "f"}, {"measurement": "Plt. Ht.", "setting": "[3]; [11]", "value": 4.1, "unit": "e inches"}, {"measurement": "Plt. Wt.", "setting": "[3]; [11]", "value": 3, "unit": "de grams"}, {"measurement": "Root Wt.", "setting": "[3]; [11]", "value": 1.0, "unit": "d grams"}, {"measurement": "Shoot Wt.", "setting": "[3]; [11]", "value": 2.0, "unit": "ef grams"}, {"measurement": "Vigor (1-5)", "setting": "[3]; [11]", "value": 2.2, "unit": "g"}]}
{"compound": "O=S(=O)([O-])[O-].[Fe+2]", "note": "[Fe, FeSO4]", "values": [{"measurement": "Leaf #", "setting": "[4]; [12]", "value": 6.3, "unit": "ab"}, {"measurement": "Plt. Ht.", "setting": "[4]; [12]", "value": 6.4, "unit": "abc"}, {"measurement": "Plt. Wt.", "setting": "[4]; [12]", "value": 6.4, "unit": "c"}, {"measurement": "Root Wt.", "setting": "[4]; [12]", "value": 3.0, "unit": "c"}, {"measurement": "Shoot Wt.", "setting": "[4]; [12]", "value": 3.4, "unit": "cd"}, {"measurement": "Vigor", "setting": "[4]; [12]", "value": 2.1, "unit": "c"}, {"measurement": "Leaf #", "setting": "[4]; [13]", "value": 6.3, "unit": "ab"}, {"measurement": "Plt. Ht.", "setting": "[4]; [13]", "value": 6.4, "unit": "ab"}, {"measurement": "Plt. Wt.", "setting": "[4]; [13]", "value": 6.4, "unit": "b"}, {"measurement": "Root Wt.", "setting": "[4]; [13]", "value": 3.0, "unit": "b"}, {"measurement": "Shoot Wt.", "setting": "[4]; [13]", "value": 3.4, "unit": "ab"}, {"measurement": "Vigor", "setting": "[4]; [13]", "value": 2.1, "unit": "c"}, {"measurement": "Leaf #", "setting": "[4]; [14]", "value": 6.6, "unit": "ab"}, {"measurement": "Plt. Ht.", "setting": "[4]; [14]", "value": 4.2, "unit": "b"}, {"measurement": "Plt. Wt.", "setting": "[4]; [14]", "value": 4.9, "unit": "b"}, {"measurement": "Root Wt.", "setting": "[4]; [14]", "value": 1.4, "unit": "bc"}, {"measurement": "Shoot Wt.", "setting": "[4]; [14]", "value": 3.6, "unit": "b"}, {"measurement": "Vigor", "setting": "[4]; [14]", "value": 3.8, "unit": "b"}, {"measurement": "Leaf #", "setting": "[4]; [15]", "value": 5.1, "unit": "b"}, {"measurement": "Plt. Ht.", "setting": "[4]; [15]", "value": 6.3, "unit": "b"}, {"measurement": "Plt. Wt.", "setting": "[4]; [15]", "value": 4.5, "unit": "b"}, {"measurement": "Root Wt.", "setting": "[4]; [15]", "value": 1.6, "unit": "bc"}, {"measurement": "Shoot Wt.", "setting": "[4]; [15]", "value": 2.9, "unit": "cd"}, {"measurement": "Vigor", "setting": "[4]; [15]", "value": 2.5, "unit": "c"}, {"measurement": "biological effect on plant, root and shoot weights relative to UTC", "setting": "[4]; high application rate of CPPA alone or of Fe alone, FIG. 9F, Table 4", "value": "apparent slightly negative biological effect on the plant, root and shoot weights, although it was not statistically significant"}, {"measurement": "root development and shoot development", "setting": "seeds", "value": "negative effect on root development and on shoot development"}]}
